# From patent publication US20160264593A1 (priority 2013, published 2016)
# Where two headings read alike, the source gives them in different places.
# Experiments:
# [1] = Microsomal stability, mouse microsomes; type: in vitro ADME; conditions: relative to verapamil
# [2] = in vivo
# [3] = female dogs, day 4, cited from earlier work
# [4] = day 4, cited from earlier work
# [5] = Microsomal stability, dog microsomes; type: in vitro ADME; conditions: relative to verapamil
# [6] = rat, in vivo
# [7] = Oral administration of 100 and 151 (Discussion): oral bioavailability, plasma and brain levels
# [8] = set-up: species or system SD rats; conditions: male, SD, rat, in vivo, iv, 1 mg/kg
# Experimental: 105 was dissolved in 4% NaHCO3 in saline for IV administration. The detailed procedure of dosing solution preparation was presented in Appendix I.
# Thirteen (13) animals were placed on the study. The animals in IV arm were free access to food and water. One extra animal was used for blank liver and plasma generation (5 mL per animal). The resulting blank liver and plasma was then applied to the development of bioanalytical method and sample bioanalysis for the entire study.
# The IV injection was conducted via foot dorsal vein. Animals were free access to food and water before dose.
# The animal is restrained manually. Approximately 150 μL of blood/time point is collected into sodium heparin tube via cardiac puncture for terminal bleeding (anesthetized under carbon dioxide). Blood sample will be put on ice and centrifuged to obtain plasma sample (2000 g, 5 min under 4° C.) within 10 minutes.
# The animal will be euthanized with carbon dioxide inhalation. Open abdominal cavity with scissor to expose internal organs. Hold the carcass in an upright position and allow the organs to fall forward. Cut the connective tissues and remove the organs. […]
# The PK parameters were determined by non-compartmental model of non-compartmental analysis tool, Pharsight Phoenix WinNonlin® 6.2 software. […]
smiles,measurement,setting,value
"CN1CCN(C(=O)C2C3CCC(O3)C2C(=O)O)CC1 (stereo not drawn) [Compound 100, 3-(4-methylpiperazine-1-carbonyl)-7-oxa-bicyclo[2,2,1]-heptane-2-carboxylic acid]",stability in the presence of microsomes,[1],stable relative to verapamil
same,passage of the blood brain barrier (BBB) (statement),[2],does not readily pass the blood brain barrier
same,AUClast,[3]; 0.15 mg/kg,335 ng·h/mL
same,Cmax,[3]; 0.15 mg/kg,370 ng/mL
same,Co,[3]; 0.15 mg/kg,566 ng/mL
same,T1/2,[3]; 0.15 mg/kg,28.2 min
same,Tmax,[3]; 0.15 mg/kg,15 min
same,AUClast,[3]; 0.30 mg/kg,1020 ng·h/mL
same,Cmax,[3]; 0.30 mg/kg,731 ng/mL
same,Co,[3]; 0.30 mg/kg,857 ng/mL
same,T1/2,[3]; 0.30 mg/kg,48.6 min
same,Tmax,[3]; 0.30 mg/kg,21 min
same,AUClast,[3]; 0.50 mg/kg,2120 ng·h/mL
same,Cmax,[3]; 0.50 mg/kg,1260 ng/mL
same,Co,[3]; 0.50 mg/kg,1930 ng/mL
same,T1/2,[3]; 0.50 mg/kg,72 min
same,Tmax,[3]; 0.50 mg/kg,15 min
same,Cl,"[4]; MALE rats, 0.5 mg/kg",17.85 mL/min/kg
same,Cl,"[4]; MALE rats, 0.75 mg/kg",22.32 mL/min/kg
same,Cl,"[4]; MALE rats, 1.25 mg/kg",15.8 mL/min/kg
same,% AUC* Extrapolated,"[4]; female rats, 0.5 mg/kg",5.6%
same,AUC*,"[4]; female rats, 0.5 mg/kg",479 ng·h/mL
same,AUClast,"[4]; female rats, 0.5 mg/kg",452 ng·h/mL
same,Cl,"[4]; female rats, 0.5 mg/kg",17.42 mL/min/kg
same,Co,"[4]; female rats, 0.5 mg/kg",1497 ng/mL
same,DN AUClast,"[4]; female rats, 0.5 mg/kg",904
same,SC AUClast,"[4]; female rats, 0.5 mg/kg",17.7 ng·h/mL
same,T1/2,"[4]; female rats, 0.5 mg/kg",15 min
same,Vz,"[4]; female rats, 0.5 mg/kg",0.378 L/kg
same,% AUC* Extrapolated,"[4]; female rats, 0.75 mg/kg",27%
same,AUC*,"[4]; female rats, 0.75 mg/kg",949 ng·h/mL
same,AUClast,"[4]; female rats, 0.75 mg/kg",691 ng·h/mL
same,Cl,"[4]; female rats, 0.75 mg/kg",13.2 mL/min/kg
same,Co,"[4]; female rats, 0.75 mg/kg",2347 ng/mL
same,DN AUClast,"[4]; female rats, 0.75 mg/kg",921
same,SC AUClast,"[4]; female rats, 0.75 mg/kg",54.0 ng·h/mL
same,T1/2,"[4]; female rats, 0.75 mg/kg",35.4 min
same,Vz,"[4]; female rats, 0.75 mg/kg",0.677 L/kg
same,% AUC* Extrapolated,"[4]; female rats, 1.25 mg/kg",17%
same,AUC*,"[4]; female rats, 1.25 mg/kg",2853 ng·h/mL
same,AUClast,"[4]; female rats, 1.25 mg/kg",2359 ng·h/mL
same,Cl,"[4]; female rats, 1.25 mg/kg",7.3 mL/min/kg
same,Co,"[4]; female rats, 1.25 mg/kg",3849 ng/mL
same,DN AUClast,"[4]; female rats, 1.25 mg/kg",1887
same,SC AUClast,"[4]; female rats, 1.25 mg/kg",747 ng·h/mL
same,T1/2,"[4]; female rats, 1.25 mg/kg",108 min
same,Vz,"[4]; female rats, 1.25 mg/kg",1.138 L/kg
same,stability in the presence of microsomes,[5],stable relative to verapamil
same,presence in plasma after oral administration (statement),[6],little is present in plasma
COC(=O)C1C2CCC(O2)C1C(=O)N1CCN(C)CC1 (stereo not drawn) [Compound 151],151 in brain tissue (statement),[7]; 151 given by mouth to rats,barely detectable in brain tissue
same,levels of compound 100 in the plasma after 151 (statement),[7]; 151 given by mouth to rats,substantial levels of compound 100 in the plasma
same,oral bioavailability,[7]; Discussion,about 60%
"O=C(O)C1C2CCC(O2)C1C(=O)O (stereo not drawn) [Endothal, 7-oxabicyclo[2.2.1]heptane-2,3-dicarboxylic acid]",AUC(0-t),[8],3152 ng·h/mL
same,Tmax,[8],15 min
